In US6818620B2, “Synthetic compounds and compositions with enhanced cell binding” (The Regents of the University of California, priority 1991, dated 2004):
Entries after “also recorded” stand apart in the source; their conditions may differ. No end group written: not given here.

Tests used:
[1] = tested on: fibroblast cells from 19-week fetal human dermis; assay: Binding of fibroblast cells to collagen- or peptide-coated glass coverslips and dishes (Example 1); type: cell-based; settings: for Concentration of Cells (Relative Binding of Cells After 15 Minutes): coverslips coated with 50 μl of 1 mg/ml solution, approximately 100,000 fibroblast cells
Procedure: All media and supplies for tissue culture were obtained from University of California San Francisco Tissue Culture Facility. Cycloheximide was purchased from Sigma Biochemicals, St. Louis, Mo. Rat tail tendon collagen was purified to homogeneity and characterized in our laboratory using published methods. Tissue culture dishes (35 mm diameter, Falcon Plastics) were coated with collagen dissolved in 0.01 N acetic acid to a concentration of 10 μg/ml. The dishes were allowed to air dry overnight under ultraviolet light to maintain sterility. Primary cultures of fibroblast cells from 19-week fetal human dermis were obtained. The cultures were maintained in Eagles minimum essential medium with Earle's salts supplemented with 10% fetal bovine serum. All cells used were in the second passage and were obtained from confluent cultures. Prior to release and dispersion with trypsin, the cells were rinsed three times with phosphate buffered saline. The cell layers were exposed for two minutes to 0.05% trypsin, 0.02% NaEDTA in phosphate buffered saline, and rinsed with serum free medium. Glass coverslips (12-15) were washed in a cleaning solution overnight then rinsed with large amounts of distilled water. The coverslips were then sterilized by drying between sheets of filter paper in an oven at high temperature. The coverslips were then placed in small culture dishes under sterile conditions. A solution of collagen in acetic acid (1 mg/ml) was prepared. Fifty microliters of solution was placed on each of four coverslips, which were then dried in air overnight. A solution of the peptide in acetic acid (1 mg/ml) was prepared. Four coverslips were treated with 50 μl of the solution and then dried as described above. Approximately 100,000 fibroblast cells were pipetted onto four control coverslips and dishes, four collagen coated coverslips and dishes, and four peptide coated coverslips and dishes. After 15 minutes, excess medium containing floating cells was removed from each dish. Fresh medium was added and the dishes were examined under a microscope to determine the extent of binding of cells to the respective coverslips. If the number of bound cells appeared to be different, an assay for DNA in the cells attached to each coverslip was performed. The cells were counted using a hemocytometer.

[2] = tested on: binding of cells to collagen; assay: Inhibition of cell binding (attachment) to collagen substrates by peptides added to the medium (Example 2); type: cell-based, human; settings: for % Inhibition of Cell Attachment / % of Maximal Cell Attachment: collagen substrates; for effect on the binding of cells to collagen (in words): equimolar concentrations of several peptides
Procedure: All media and supplies for tissue culture were obtained from University of California San Francisco Tissue Culture Facility. Cycloheximide was purchased from Sigma Biochemicals, St. Louis, Mo. Rat tail tendon collagen was purified to homogeneity and characterized in our laboratory using published methods. Tissue culture dishes (35 mm diameter, Falcon Plastics) were coated with collagen dissolved in 0.01 N acetic acid to a concentration of 10 μg/ml. The dishes were allowed to air dry overnight under ultraviolet light to maintain sterility.
Primary cultures of fibroblast cells from 19-week fetal human dermis were obtained. The cultures were maintained in Eagles minimum essential medium with Earle's salts supplemented with 10% fetal bovine serum. All cells used were in the second passage and were obtained from confluent cultures. Prior to release and dispersion with trypsin, the cells were rinsed three times with phosphate buffered saline. The cell layers were exposed for two minutes to 0.05% trypsin, 0.02% NaEDTA in phosphate buffered saline, and rinsed with serum free medium.
Collagen related, but non-inventive peptides, (Pro-Pro-Gly)10 and (Pro-Hyp-Gly)10 (wherein Hyp is hydroxy-proline), were obtained from Peninsula Laboratory, Belmont, Calif. Polyproline was purchased from Sigma Biochemicals, St. Louis, Mo. Dynorphin 1-13 and human preangiotensinogen 1-14 were purchased from Bachem, Torrance, Calif. Three different fibronectin related peptide sequences were also obtained from Bachem and were used without further analysis.
The inventive peptide (SEQ ID NO:1) was synthesized as described in Example 1 and the same procedures and conditions of Example 1 were used herein.
In this experiment to examine the effect of various additives on binding, the additives were added in the medium containing the cells before being transferred to the dishes for the binding assay. It was observed that cell binding to collagen proceeds rapidly in the beginning of the experiment but then slows down after approximately 30 minutes and approximately 70-80% of the cell binding in the absence of a peptide occurs during this time. The effect of the peptide inhibitor on the initial rate of the binding reaction between cells and collagen was examined. The effects of various conditions on cell binding to collagen after 30 minutes were usually compounded.
All peptides used had small inhibitory effects on cell binding, although none reached the level of inhibition observed with the inventive peptide. […] Under the conditions of these experiments, polyproline and (PPG)10 exist as single chains in polyproline conformation whereas (P-Hyp-G)10 is a triple helix. The behavior of dynorphin 1-13 and preangio-tensinogen 1-14, peptides similar in size to the inventive peptide, on cell binding was also examined.

[3] = tested on: cells; assay: Relative cell-binding activity of synthetic peptides (relative to the SEQ ID NO:1 peptide / P-15, or to collagen); type: cell-based; settings: for Relative Cell-Binding Activity: relative to the inventive peptide illustrated in Examples 1 and 2 (SEQ ID NO:1)
Procedure: Several more synthetic peptides were prepared and tested for cell binding activity (relative to the SEQ ID NO:1 peptide) all of which have the β-bend feature and which have excellent cell binding activity.
The relative efficiencies of some synthetic peptides of this invention for cell-binding activity (relative to the inventive peptide illustrated in Examples 1 and 2) are set out in Table 4.

[4] = tested on: peripheral blood CD4 and CD8 lymphocytes; assay: Inhibition of T-cell binding to collagen-coated dishes (Example 7); type: cell-based; settings: rat tail type I collagen-coated dishes, serum free medium
Procedure: Cultured T-cells were incubated in collagen-coated dishes in serum free medium, in the presence and absence of inventive peptides. […] Inhibition was examined at several concentrations and times. Maximal inhibition by the peptides occurred at 30 minutes at 37 ? C at a concentration of 35 μM. Thus, the molecular site on type I collagen involved in the interaction with T-cells appears to be the same as involved in fibroblast binding.

[5] = tested on: dermal fibroblasts; assay: Induction of metalloproteinases and osteodifferentiation in dermal fibroblasts; type: cell-based
From the text: This activity is useful for resolving fibrosis. […] This is confirmed by the induction of the following genes: type I collagen, collagenase, alkaline phosphatase, osteonectin, transforming growth factor β (TGF-β), and osteogenin (bone morphogenic protein, […]). These studies confirm that the inventive peptides mimic the biological activity of collagen by binding to specific receptors and inducing biochemical processes characteristic of those induced by collagen itself.

[6] = tested on: fibroblast cells; assay: Fibroblast growth and migration into agarose gel containing peptide (Example 3); type: cell-based; settings: 100 μg peptide in agarose gel (2 mg/ml); 100,000-200,000 fibroblast cells; 72 hours after plating
Procedure: Referring to FIGS. 1 and 2, a prior art agarose gel was prepared with an agarose concentration of 2 mg/ml and between 100,000-200,000 fibroblast cells were placed on the gel surface. The agarose gel had been prepared with a suitable fibroblast cell growth medium and the cells placed on the agarose gel were treated with growth medium; however, the cells died within 48 hours, as is illustrated by the FIG. 1 photograph. […] The fibroblast population continued to grow rapidly until cells filled the lattice of the gel.
Different concentrations of the inventive peptides in hydrogels were studied. […] Different types of cells appear to prefer different inventive peptide concentrations in hydrogels, probably due to differences in receptor densities, but in general about 100 μg/ml will be effective.

[7] = tested on: cells; assay: Relative cell-binding activity of synthetic peptides (relative to the SEQ ID NO:1 peptide / P-15, or to collagen); type: cell-based

With “Collagen: Rat tail tendon collagen purified to homogeneity [reference compound]” the “Concentration of Cells (Relative Binding of Cells After 15 Minutes)” value ([1]; 15 minutes) was 8.59.
With Dynorphin 1-13 (YGGFLRRIRPKLK) the “% Inhibition of Cell Attachment” value ([2]; peptide 35 × 10^−6M) was 19%, the “% of Maximal Cell Attachment” value ([2]; peptide 35 × 10^−6M) was 81% and the “effect on the binding of cells to collagen (in words)” value (“effect on the binding of cells” below) [2] was “did not affect the binding of cells to collagen to the extent shown by the inventive peptide”.
For FGIAGF [SEQ ID NO:5], the “cell binding activity compared with P-15 region / SEQ ID NO:1 peptide (in words)” value [3] was “cell binding activity comparable to that of the peptides of SEQ ID NO: 1, 2, and 3” and the “Relative Cell-Binding Activity” value [3] was 87.
With GPQGIAGQR [SEQ ID NO:2] the “cell binding activity compared with P-15 region / SEQ ID NO:1 peptide (in words)” value [3] was “equally as active as the entire P-15 region”, the “Relative Cell-Binding Activity” value [3] was 100 and the “inhibition of interactions between T-cells and collagen” value [4] was “markedly inhibited”.
In the case of GTPGPQGIAGQRGVV [SEQ ID NO:1], the induction of metalloproteinases ([5]; dermal fibroblasts) was “induces metalloproteinases”, the “osteodifferentiation (induction of type I collagen, collagenase, alkaline phosphatase, osteonectin, TGF-β, BMP-7 genes)” value ([5]; in composites with hydroxyapatite, non-osteoblastic (dermal) fibroblasts) was “causes osteodifferentiation” and the “inhibition of interactions between T-cells and collagen” value [4] was “markedly inhibited”. For the same substance, the “fibroblast growth and migration into agarose gel” value [6] was “the cells not only grew, but actually migrated into the gel itself”, the “increase in cell binding over collagen-coated dishes” value ([1]; 15 minutes) was 40% and the “increase in cell binding over the control (no collagen or peptide) dishes” value ([1]; 15 minutes) was 60%. For the same substance, the “Concentration of Cells (Relative Binding of Cells After 15 Minutes)” value ([1]; 15 minutes) was 11.05, the “potency relative to collagen in binding cells to glass or to polystyrene” value ([1]; various other similar studies) was “at least twice as potent as collagen” and the “% Inhibition of Cell Attachment” value ([2]; peptide 7.2 × 10^−6M) was 85%. For the same substance, the “% of Maximal Cell Attachment” value ([2]; peptide 7.2 × 10^−6M) was 15%, the “% Inhibition of Cell Attachment” value ([2]; peptide 36 × 10^−6M) was 88% and the “% of Maximal Cell Attachment” value ([2]; peptide 36 × 10^−6M) was 12%. For the same substance, the “effect on the binding of cells” value [2] was “potent inhibitor of the binding of cells to collagen”.
In the case of “Gln-Gly-Ile-Ala-Gly (QGIAG; OTHER INFORMATION: synthetic peptide) [SEQ ID NO:8]”, the “cell-binding activity (relative to the SEQ ID NO:1 peptide)” value [3] was 42% and the “cell binding enhancement with respect to collagen (in words)” value [7] was “slightly enhanced with respect to collagen, but not significantly enhanced; also recorded: not significantly enhanced with respect to collagen”.
For “Gly-Ile-Ala-Gly (FGIAGF; OTHER INFORMATION: synthetic peptide) [SEQ ID NO:9]”, the “cell binding enhancement with respect to collagen (in words)” value [7] was “not significantly enhanced with respect to collagen”.
With “Gly—Ile—Ala—Gly—Gln (GIAGQ; OTHER INFORMATION: synthetic peptide) [SEQ ID NO:6]” the “cell-binding activity (relative to the SEQ ID NO:1 peptide)” value [3] was 70% and the “Relative Cell-Binding Activity” value [3] was 70.
For Polyproline, the “% Inhibition of Cell Attachment” value ([2]; peptide 1.7 × 10^−6M) was 10%, the “% of Maximal Cell Attachment” value ([2]; peptide 1.7 × 10^−6M) was 90% and the “effect on the binding of cells” value [2] was “did not significantly affect the binding of cells”.
In the case of QGAIAQ [SEQ ID NO:7], the “Relative Cell-Binding Activity” value [3] was 70.
In the case of QGIAGQ [SEQ ID NO:3], the “cell binding activity compared with P-15 region / SEQ ID NO:1 peptide (in words)” value [3] was “as active, or more active, than a peptide having the entire P-15 region”, the “Relative Cell-Binding Activity” value [3] was 120 and the “inhibition of interactions between T-cells and collagen” value [4] was “markedly inhibited”.
For QGIAGQR [SEQ ID NO:4], the “Relative Cell-Binding Activity” value [3] was 60.
“human preangiotensinogen 1-14 (DRVYIHPFHLVIHN)” was tested, and the “% Inhibition of Cell Attachment” value ([2]; peptide 35 × 10^−6M) was 12%, the “% of Maximal Cell Attachment” value ([2]; peptide 35 × 10^−6M) was 88% and the “effect on the binding of cells” value [2] was “did not affect the binding of cells to collagen to the extent shown by the inventive peptide”.
